Results from US10034886B2, “GLP-1 receptor modulators” (Celgene International II SÀRL, priority 2014, dated 2018).

Molecular target: T1, GLP-1R (Homo sapiens, UniProt P43220)
T1 construct: host or cells: GLP-1R CRE-bla CHO-K1 cells
Assay: EC20 GLP-1(9-36) PAM cAMP assay: dose response of compound in the presence of fixed concentration of GLP-1(9-36)
Type: cell-based
Conditions: GLP-1R CRE-bla CHO-K1 cells, compound dose response with fixed concentration of GLP-1(9-36), read-out: EC20 GLP-1(9-36) PAM EC50
Method in brief: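 GLP-1R CRE-bla CHO-K1 cells treated 30 min at 37 °C with 12-point compound dose response plus fixed EC20 GLP-1(9-36), with IBMX, in HBSS/HEPES/0.1% BSA pH 7.4. Total cAMP measured by luminescent detection against standard curve; EC50 and Emax from non-linear regression.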

T1 sequence (P43220 24-463): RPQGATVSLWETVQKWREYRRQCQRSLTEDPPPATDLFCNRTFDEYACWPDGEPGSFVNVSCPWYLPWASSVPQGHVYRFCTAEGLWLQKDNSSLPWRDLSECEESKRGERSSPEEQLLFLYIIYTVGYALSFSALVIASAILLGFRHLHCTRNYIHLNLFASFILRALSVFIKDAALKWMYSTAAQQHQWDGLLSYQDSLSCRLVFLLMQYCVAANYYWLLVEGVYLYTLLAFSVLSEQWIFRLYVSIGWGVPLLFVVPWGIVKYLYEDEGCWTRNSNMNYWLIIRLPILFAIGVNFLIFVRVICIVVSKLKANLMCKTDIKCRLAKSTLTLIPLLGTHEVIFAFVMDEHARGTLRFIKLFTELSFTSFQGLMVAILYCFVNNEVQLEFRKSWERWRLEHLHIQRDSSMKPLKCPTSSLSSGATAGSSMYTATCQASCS
T1 sequence (P01275 100-127 partner limits assumed): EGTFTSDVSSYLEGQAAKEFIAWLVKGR

EC50 [nM] | Structure (SMILES)
< 800 | COc1cccc(C2CCN(c3cnc(-c4ccc(C[C@H](NC(=O)c5ccc(C(C)(C)C)s5)C(=O)N5CC(C(=O)O)C5)cc4)nc3)CC2)c1 [Compound 1477]
< 800 | CCCc1ccc(-c2ccc(-c3cnc(-c4ccc(C[C@H](NC(=O)c5ccc(C(F)(F)F)cc5)C(=O)N5CC(C(=O)O)C5)cc4)nc3)c(F)c2)cc1 [Compound 1400]
2500 to 5000 | CCCC1CCN(C(=O)C(C)(C)CNc2cnc(-c3ccc(C[C@H](NC(=O)c4ccc(C(C)(C)C)s4)C(=O)N4CC(C(=O)O)C4)cc3)nc2)CC1 [Compound 1497]
800 to 2500 | C[C@@H](NC(=O)[C@H](Cc1ccc(-c2ncc(-c3cccc(N4CCCCC4)c3)cn2)cc1)NC(=O)c1ccc(C(C)(C)C)s1)C(=O)O [Compound 1284]
800 to 2500 | CCOc1ccc(C2CCN(c3cnc(-c4ccc(CC(NC(=O)c5ccc(C(C)(C)C)s5)C(=O)N5CC(C(=O)O)C5)cc4)nc3)CC2)cc1 (stereo not drawn) [Compound 1490]
800 to 2500 | COc1ccccc1C1CCN(c2cnc(-c3ccc(C[C@H](NC(=O)c4ccc(C(C)(C)C)s4)C(=O)N4CC(C(=O)O)C4)cc3)nc2)CC1 [Compound 1492]
800 to 2500 | C[C@@H](NC(=O)[C@H](Cc1ccc(-c2ncc(-c3ccc(C4CC4)cc3)cn2)cc1)NC(=O)c1ccc(C(C)(C)C)s1)C(=O)O [Compound 1306]
800 to 2500 | CC(C)Oc1ccc(-c2ccc(-c3cnc(-c4ccc(C[C@H](NC(=O)c5ccc(C(C)(C)C)s5)C(=O)N[C@H](C)C(=O)O)cc4)nc3)cc2)cc1 [Compound 1295]
2500 to 5000 | CCCC(C)Oc1ccc(-c2ccc(-c3cnc(-c4ccc(C[C@H](NC(=O)c5ccc(C(C)(C)C)s5)C(=O)N[C@H](C)C(=O)O)cc4)nc3)cc2)cc1 (stereo partly drawn) [Compound 1296]
800 to 2500 | CCOc1ccc(/C=C/c2cnc(-c3ccc(C[C@H](NC(=O)c4ccc(C(C)(C)C)s4)C(=O)N[C@H](C)C(=O)O)cc3)nc2)cc1 [Compound 1258]
2500 to 5000 | CCC[C@H]1CC[C@H](C2CCN(c3cnc(-c4ccc(CC(NC(=O)c5ccc(C(C)(C)C)s5)C(=O)NS(=O)(=O)CC)cc4)nc3)CC2)CC1 (stereo partly drawn) [Compound 1539]
< 800 | CC[C@H]1CC[C@H](c2ccc(-c3ccc(-c4ccc(C[C@H](NC(=O)c5ccc(C(C)(C)C)s5)C(=O)N5CC(C(=O)O)C5)cc4)cn3)cc2)CC1 [Compound 1341]
< 800 | CCCc1ccc(-c2ccc(-c3cnc(-c4ccc(C[C@H](NC(=O)c5ccc(S(C)(=O)=O)cc5)C(=O)N5CC(C(=O)O)C5)cc4)nc3)c(F)c2)cc1 [Compound 1404]
5000 to 10000 | CC[C@H]1CC[C@H](c2ccc(-c3cnc(-c4ccc(C[C@H](NC(=O)c5ccc(C)s5)C(=O)O)cc4)nc3)cc2)CC1 [Compound 1385]
< 800 | CCC[C@H]1CC[C@H](C2CCN(c3cnc(-c4ccc(CC(NC(=O)c5ccc(C(C)(C)C)s5)C(=O)NS(=O)(=O)C(C)(C)C)cc4)nc3)CC2)CC1 (stereo partly drawn) [Compound 1546]
< 800 | CCC[C@H]1CC[C@H](C2CCN(c3cnc(-c4ccc(C[C@H](NC(=O)c5ccc(C(C)(C)C)s5)C(=O)N[C@H](C)C(=O)O)cc4)nc3)CC2)CC1 [Compound 1437]

Structure (SMILES) | EC50 [nM]
CC[C@H]1CC[C@H](c2ccc(-c3cnc(-c4ccc(C[C@H](NC(=O)c5ccc(C(C)(C)C)s5)C(=O)N5C6CCC5C(C(=O)O)C6)cc4)nc3)cc2)CC1 (stereo partly drawn) [Compound 1321] | 800 to 2500

Same assay, conditions: dose response of compound in presence of fixed concentration of GLP-1(9-36), GLP-1R CRE-bla CHO-K1 cells, read-out: EC20 GLP-1(9-36) PAM EC50

EC50 [nM] | Structure (SMILES)
800 to 2500 | CC(C)(C)c1ccc(C(=O)N[C@@H](Cc2ccc(-c3ncc(-c4ccc(C5CCCC5)cc4)cn3)cc2)C(=O)N2CC(C(=O)O)C2)s1 [Compound 1089]
< 800 | CCCCCCCOc1ccc(-c2cnc(-c3ccc(C[C@H](NC(=O)c4ccc(C(C)(C)C)s4)C(=O)NS(C)(=O)=O)cc3)nc2)cc1 [Compound 419]
800 to 2500 | CCc1ccc(/C=C/c2cnc(-c3ccc(C[C@H](NC(=O)c4ccc(C(C)(C)C)s4)C(=O)N4CC[C@H](C(=O)O)C4)cc3)nc2)cc1 [Compound 1086]
2500 to 5000 | CC(C)(C)CCOc1ccc(-c2cnc(-c3ccc(C[C@H](NC(=O)c4ccc(C(C)(C)C)s4)C(=O)NC(C(=O)O)C(O)c4ccccc4)cc3)nc2)cc1 (stereo partly drawn) [Compound 941]
800 to 2500 | CCCCCCCOc1ccc(-c2cnc(-c3ccc(C[C@H](NC(=O)c4ccc(C(C)(C)C)cc4)C(=O)NC(CO)CC(=O)O)cc3)nc2)cc1 (stereo partly drawn) [Compound 550]
5000 to 10000 | CCCCCCCOc1ccc(-c2cnc(-c3ccc(C[C@H](NC(=O)c4ccc(C(C)(C)C)s4)C(=O)NCC4CC4)cc3)nc2)cc1 [Compound 968]
< 800 | CCCCCCCOc1ccc(-c2cnc(-c3ccc(C[C@H](NC(=O)c4ccc(C(C)(C)C)cc4)C(=O)N[C@@H](C)C(=O)O)cc3)nc2)cc1 [Compound 400]
2500 to 5000 | CC(C)(C)c1ccc(C(=O)N[C@@H](Cc2ccc(-c3ncc(-c4ccc(OCCC5CCCC5)cc4)cn3)cc2)C(=O)NC(C(=O)O)C(O)c2ccccc2)s1 (stereo partly drawn) [Compound 939]
800 to 2500 | CCCCCCCOc1ccc(-c2cnc(-c3ccc(C[C@H](NC(=O)c4ccc(C(C)(C)C)s4)C(=O)N4CCC[C@H]4C(=O)N4CC[C@@H](C(=O)O)C4)cc3)nc2)cc1 [Compound 500]
800 to 2500 | CCCCCCCOc1ccc(-c2cnc(-c3ccc(C[C@H](NC(=O)c4ccc(C(C)(C)C)cc4C)C(=O)N[C@H](C)C(=O)O)cc3)nc2)cc1 [Compound 843]
< 800 | CCCCCCCOc1ccc(-c2cnc(-c3ccc(C[C@H](NC(=O)c4ccc(C(C)(C)C)cc4)C(=O)N4CC(C(=O)O)C4)cc3)nc2)cc1 [Compound 590, (S)-1-(2-(4-(tert-butyl)benzamido)-3-(4-(5-(4-(heptyloxy)phenyl)pyrimidin-2-yl)phenyl)propanoyl)azetidine-3-carboxylic acid]
5000 to 10000 | CC(C)(C)c1ccc(C(=O)N[C@@H](Cc2ccc(-c3ncc(-c4nc(-c5ccc(Cl)c(Cl)c5)no4)cn3)cc2)C(=O)NCCC(=O)O)cc1 [Compound 752]
< 800 | CC[C@H]1CC[C@H](c2ccc(-c3cnc(-c4ccc(C[C@H](NC(=O)c5cnn(C(C)(C)C)c5)C(=O)N5CC(C(=O)O)C5)cc4)nc3)cc2)CC1 [Compound 1165]
< 800 | CC[C@H]1CC[C@H](c2ccc(-c3cnc(-c4ccc(C[C@H](NC(=O)c5ccc(C(C)(C)C)s5)C(=O)N5CC(C(=O)O)C5)cc4)nc3)cc2)CC1 [Compound 1057, 1-((S)-2-(5-(tert-butyl)thiophene-2-carboxamido)-3-(4-(5-(4-((1r,4r)-4-ethylcyclohexyl)phenyl)pyrimidin-2-yl)phenyl)propanoyl)azetidine-3-carboxylic acid]
< 800 | CCCCCCCOc1ccc(-c2cnc(-c3ccc(C[C@H](NC(=O)c4ccc(C(C)(C)C)cc4)C(=O)N[C@@H](Cc4ccccn4)C(=O)O)cc3)nc2)cc1 [Compound 542]
800 to 2500 | CCCCCCCOc1ccc(-c2cnc(-c3ccc(C[C@H](NC(=O)c4ccc(C(C)(C)C)s4)C(=O)N[C@H]4C[C@@H](C(=O)O)C4)cc3)nc2)cc1 [Compound 872]

EC50 [nM] | Structure (SMILES)
800 to 2500 | CCCCCCCOc1ccc(-c2cnc(-c3ccc(C[C@H](NC(=O)c4ccc(CCC)s4)C(=O)NC(C(=O)O)C(O)c4ccccc4)cc3)nc2)cc1 (stereo partly drawn) [Compound 959]
5000 to 10000 | CCCCCCCOc1ccc2nc(-c3ccc(C[C@H](NC(=O)c4ccc(C(C)(C)C)cc4)C(=O)N4CC[C@H](C(=O)O)C4)cc3)ncc2c1 [Compound 810]
< 800 | CCCCCCCOc1ccc(-c2cnc(-c3ccc(C[C@H](NC(=O)c4ccc(Cc5ccccc5)cc4)C(=O)N[C@H](C)C(=O)O)cc3)nc2)cc1 [Compound 825]
< 800 | CC(C)(C)c1ccc(C(=O)N[C@@H](Cc2ccc(-c3ncc(-c4ccc(-c5ccc(Cl)c(Cl)c5)cc4F)cn3)cc2)C(=O)N2CC(C(=O)O)C2)s1 [Compound 1200]
2500 to 5000 | CCCCCCCOc1ccc(-c2cnc(-c3ccc(C[C@H](NC(=O)c4ccc(C(C)(C)C)s4)C(=O)N4CC(N(C)C)C4)cc3)nc2)cc1 [Compound 976]
800 to 2500 | CCOCCCCOc1ccc(-c2cnc(-c3ccc(C[C@H](NC(=O)c4ccc(C(C)(C)C)cc4)C(=O)NCCC(=O)O)cc3)nc2)cc1 [Compound 443]
800 to 2500 | CCCCCCCOc1ccc(-c2cnc(-c3ccc(C[C@H](NC(=O)c4ccc(C(C)(C)C)cc4)C(=O)N[C@H](CC(=O)O)C(=O)NC)cc3)nc2)cc1 [Compound 589]
< 800 | CCCCCCCOc1ccc(-c2cnc(-c3ccc(C[C@H](NC(=O)c4ccc(C(C)(C)C)cc4)C(=O)NCC(Cc4cccnc4)C(=O)O)cc3)nc2)cc1 (stereo partly drawn) [Compound 557]
800 to 2500 | CCCCCCCOc1ccc(-c2cnc(-c3ccc(C[C@H](NC(=O)c4ccc(C(C)(C)C)cc4)C(=O)N[C@@H](CC(=O)O)C(=O)N(C)CCN(C)C)cc3)nc2)cc1 [Compound 505]
< 800 | CCCCCCCCOc1ccc(-c2cnc(-c3ccc(C[C@H](NC(=O)c4ccc(C(C)(C)C)s4)C(=O)N4CC(C(=O)O)C4)cc3)nc2)cc1 [Compound 778]
< 800 | CC[C@H]1CC[C@H](c2ccc(-c3cnc(-c4ccc(C[C@H](NC(=O)c5cc6cc(OC)ccc6[nH]5)C(=O)N5CC(C(=O)O)C5)cc4)nc3)cc2)CC1 [Compound 1166]
2500 to 5000 | CCCCCCCOc1ccc(-c2cnc(-c3ccc(C[C@H](NC(=O)c4ccc(C(C)(C)C)s4)C(=O)N[C@@H](C(=O)O)C(C)c4ccccc4)cc3)nc2)cc1 (stereo partly drawn) [Compound 898]
5000 to 10000 | CCCCCCCOc1ccc(-c2cnc(-c3ccc(C[C@H](NC(=O)c4ccc(C(C)(C)C)s4)C(=O)NCC(O)CO)cc3)nc2)cc1 (stereo partly drawn) [Compound 462]
2500 to 5000 | CCCc1ccc(-c2cnc(-c3ccc(C[C@H](NC(=O)c4ccc(C(C)(C)C)cc4)C(=O)NCCC(=O)O)cc3)nc2)cc1 [Compound 687]
800 to 2500 | CCCCCCCOc1ccc(-c2cnc(-c3ccc(C[C@H](NC(=O)c4ccc(OCC)cc4)C(=O)NC(C(=O)O)C(O)c4ccccc4)cc3)nc2)cc1 (stereo partly drawn) [Compound 949]
